{
  "source": "patent US10960084B2",
  "about": "“Modulation of fluid intake” (California Institute of Technology, priority 2018, dated 2021)",
  "key": {"SFO^nNOS neurons": {"system": "SFO^nNOS neurons", "test": "Salt/Mannitol loading with fiber photometry of SFO^nNOS/MnPO^nNOS neurons and drinking", "format": "in vivo, mice", "conditions": "fiber photometry; for activity of SFO^nNOS neurons after intraperitoneal injection: 2 M solution i.p.", "method": "Salt/Mannitol Loading Experiments: 150 μL/300 μL of 2 M NaCl or 300 μL of 2 M Mannitol was injected intraperitoneally at the end of the acclimatization period. For FIGS. 1P-T and FIGS. 7P-S, CNO or vehicle (water) was injected 10 min prior to NaCl/Mannitol injection. We measured bulk fluorescence signals using fiber photometry as previously described^[26]. Briefly, 490 nm and 405 nm LEDs ([…] and […]) were collimated and delivered to the brain. The light intensity was kept less than 100 μW during all recordings. The fluorescence signal was then focused onto a femtowatt photoreceiver (Newport, Model 2151). The modulation and demodulation were done with an RP2.1 real time processor (Tucker-Davis Technologies) running custom software. The licks from the lickometer were simultaneously recorded as real-time TTL signals to the RP2.1. Fluorescence changes were analyzed using custom MATLAB (MathWorks) code as described previously^[26]. Data were extracted and subjected to a low pass filter at 1.8 Hz. A linear function was used to scale up the 405 nm channel signal to the 490 nm channel signal to get the fitted 405 nm signal. The resultant ΔF/F was calculated as (raw 490 nm signal-fitted 405 nm signal)/(fitted 405 nm signal). For brief access tests, the Area Under Curve (ΣΔFduring) was quantified by integrating the fluorescence signals during the bout. For all bouts, the mean fluorescence for 30 s prior to the first lick was calculated and subtracted from the entire session. ΔF changes (ΔFpost-ΔFpre) were calculated by subtracting the mean fluorescence signal during the 2-s period before the first lick from the mean signal during the 2-s at 1 min after the bout. For displaying traces, the fluorescence data was time-binned by a factor of 2.5 times the sampling frequency and down-sampled to 1 Hz. For long-term tests, the Area Under Curve was calculated for 2.5 min after the start of the bout. […] For […]), the first bout at the start of the session and the last bout within 10 min of access were used. The AUC for the PSTHs were calculated during the first or the last 15 seconds."}, "MnPO^GLP1r neurons": {"system": "MnPO^GLP1r neurons", "test": "Whole-cell recording from MnPO^GLP1r neurons with Exendin-4", "format": "cell-based, mice", "conditions": "brain slice preparation", "description": "Procedures for preparation of acute brain slices and recordings with optogenetic stimulations were similar to those described previously^[10],[36]. After decapitation, the brain was removed and immersed in ice-cold solution. Coronal slices ([…]) were cut using a vibratome (VT-1200s, Leica) and moved into HEPES-holding solution (NaCl 92, KCl 2.5, NaH2PO4 1.2, NaHCO3 30, HEPES 20, glucose 25, Na-ascorbate 5, Thiourea 2, Na14 pyruvate 3, MgSO4 2, CaCl2 2, pH 7.35). The slices were allowed to recover at 33° C. for 30 min and then held at room temperature ([…]) until use.\nWhile recording, slices were perfused continuously (˜2 mL/min) with artificial cerebrospinal fluid (ACSF-NaCl 124, KCl2.5, NaH2PO4 1.2, NaHCO3 24, glucose 25, MgSO4 1, CaCl2 2) at 25° C. Neurons were visualized and targeted using an upright IR19 DIC microscope (BX51WI, Olympus). […] In order to confirm the PSCs recorded were GABAergic, picrotoxin (150 μM) was applied through the bath in part of the experiments. […] CNO (˜6 μM) was applied by a puff (30 s) from another glass pipette placed ˜50 μm from the recorded cell."}, "MnPO": {"system": "MnPO", "test": "Intra-cranial injection of Exendin-4 into the MnPO, water intake", "format": "in vivo, mice", "conditions": "100 ng into the MnPO vs vehicle (ACSF)", "method": "100 ng of Exendin-4 (Sigma Aldrich) dissolved in 1 μL of ACSF was delivered by a custom-made cannula and tubing (PlasticsOne) connected to a Hamilton syringe driven by a pump (NewEra PumpSystems) at 100 nL/min into the MnPO of water deprived animals under head-fixed conditions. Two minutes after infusion, freely-moving animals were given access to water for the next 45 minutes. The cannula position was verified by infusing Exendin-4-FAM (Anaspec) conjugate before euthanasia. ELISA"}},
  "data": [
    {"compound": "[Cl-].[Na+]", "note": "[NaCl]", "values": [
      {"measurement": "activity of SFO^nNOS neurons after intraperitoneal injection", "setting": "SFO^nNOS neurons", "value": "robustly activated"},
      {"measurement": "activity of MnPO^nNOS neurons after intraperitoneal injection", "setting": "SFO^nNOS neurons; 2 M, 300 μl i.p., water-satiated animal", "value": "robustly activated"}
    ]},
    {"compound": "OC[C@@H](O)[C@@H](O)[C@H](O)[C@H](O)CO", "note": "[Mannitol]", "values": [
      {"measurement": "activity of SFO^nNOS neurons after intraperitoneal injection", "setting": "SFO^nNOS neurons", "value": "robustly activated"}
    ]},
    {"compound": "Exendin-4", "values": [
      {"measurement": "firing frequency of MnPO^GLP1r neurons", "setting": "MnPO^GLP1r neurons", "value": "no effect on the firing frequency"},
      {"measurement": "resting membrane potential of MnPO^GLP1r neurons", "setting": "MnPO^GLP1r neurons", "value": "small decrease"},
      {"measurement": "water intake after water deprivation", "setting": "MnPO", "value": "no effect on water intake"}
    ]}
  ]
}
